Reference: article PMC10741037, “A Peptoid-Chelator Selective to Cu^2+ That Can Extract Copper from Metallothionein-2 and Lead to the Production of ROS” (Antioxidants, 2023)

Test: Kinetics of ascorbate consumption assay (ROS production)
Format: biochemical
Details: MT-2 + Cu2+ + Asc; [MT-2] = 1.6 μM, [Cu2+] = 9 μM, [Asc] = 100 μM, HEPES 10 mM pH = 7.4, absorbance at 265 nm
Method: Reagents, except the peptoid and protein, were commercially available and were used as received. All the solutions were prepared in milliQ water (resistance: 18.2 MΩ) immediately before experiments. A stock solution of HEPES buffer was prepared at 500 mm, pH = 7.4, and then diluted to 10 mM. Sodium ascorbate was prepared at 5 mm each day because of the quick degradation of the ascorbate. All pH values are given with a ±0.2 pH unit error. UV/Vis kinetics and ROS kinetic experiments were recorded with a spectrophotometer Agilent Cary 60 UV/Vis spectrophotometer (Agilent Technologies, Mulgrave, Australia), a double-beam, Czerny–Turner monochromator with external stirrer of cuvette holder, in 1 cm path-length quartz cuvettes, with 800 rpm stirring. The samples were prepared from stock solutions of MT-2, TB, Cu^2+, diluted to 1.6, 10, and 9 µM, respectively, in 10 mM HEPES solution, pH = 7.4. Ascorbate was diluted to 100 µM. […]
First, we investigated whether CuTB can produce ROS by itself. In a typical experiment, 1 equiv. of TB was mixed with 0.9 equiv. of Cu^2+ in HEPES buffer (10 mM, pH = 7.4) in a quartz cuvette under aerobic conditions, and after the formation of the metallopeptoid was confirmed by the stability of its UV/Vis spectrum, sodium ascorbate (Asc) was added to the cuvette and the changes in the absorbance at 265 nm were monitored by UV/Vis (ε = 14,500 M^−1 cm^−1). […]

CuMT-2: complex of metallothionein-2 (MT-2) with 6 equiv. of Cu2+
ascorbate consumption / redox activity: redox silent
